# Results from ChEMBL document CHEMBL1201862, “PubChem BioAssay data set” (2004).
# The source made the active and inactive calls.
# Assays:
# [1] = target: T1, Ubiquitin-conjugating enzyme E2 N (Homo sapiens, UniProt P61088); format: functional;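 note: Dose-response confirmation in a TR-FRET assay detecting UBC13-driven polyubiquitin chain formation, inhibition measured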
# T1 sequence (P61088 whole entry): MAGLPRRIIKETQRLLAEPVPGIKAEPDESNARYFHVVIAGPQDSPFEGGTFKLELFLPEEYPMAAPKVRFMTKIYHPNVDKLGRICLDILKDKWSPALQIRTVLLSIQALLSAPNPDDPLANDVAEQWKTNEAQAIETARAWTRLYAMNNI
# [2] = target: 26S proteasome non-ATPase regulatory subunit 14 (Homo sapiens, UniProt O00487); assay: inhibition of proteasome subunit RPN11 – biochemical, fluorescence polarization, uHTS hits, confirmation (AID 602368); format: functional
# Sequence of 26S proteasome non-ATPase regulatory subunit 14 (O00487 whole entry): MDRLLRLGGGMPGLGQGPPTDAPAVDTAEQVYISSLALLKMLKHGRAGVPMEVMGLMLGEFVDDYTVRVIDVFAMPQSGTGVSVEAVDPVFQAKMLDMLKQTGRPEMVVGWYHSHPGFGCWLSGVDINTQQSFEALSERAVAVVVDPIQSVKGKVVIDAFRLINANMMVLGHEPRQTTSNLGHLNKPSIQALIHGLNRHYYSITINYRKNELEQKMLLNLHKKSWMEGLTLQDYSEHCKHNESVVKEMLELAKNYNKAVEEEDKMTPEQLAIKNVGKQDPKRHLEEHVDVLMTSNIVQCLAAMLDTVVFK
# [3] = target: 72 kDa type IV collagenase (Homo sapiens, UniProt P08253); assay: Dose Response validation of uHTS RPN11 inhibitor hits using a MMP-2 Fluorescence assay.; format: functional
# Prothrombin = Prothrombin (Bos taurus, UniProt P00735); assay: thrombin inhibition, dose response, biochemical, fluorescence polarization, uHTS hits (AID 602369); format: functional
# [4] = target: Tyrosine-protein kinase Lck (Homo sapiens, UniProt P06239); format: functional;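 note: lck was assayed as one member of a kinase panel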
# [5] = target: Mast/stem cell growth factor receptor Kit (Homo sapiens, UniProt P10721); format: functional;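 note: KIT entry within a kinase panel assay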
# Sequence of Mast/stem cell growth factor receptor Kit (P10721 whole entry): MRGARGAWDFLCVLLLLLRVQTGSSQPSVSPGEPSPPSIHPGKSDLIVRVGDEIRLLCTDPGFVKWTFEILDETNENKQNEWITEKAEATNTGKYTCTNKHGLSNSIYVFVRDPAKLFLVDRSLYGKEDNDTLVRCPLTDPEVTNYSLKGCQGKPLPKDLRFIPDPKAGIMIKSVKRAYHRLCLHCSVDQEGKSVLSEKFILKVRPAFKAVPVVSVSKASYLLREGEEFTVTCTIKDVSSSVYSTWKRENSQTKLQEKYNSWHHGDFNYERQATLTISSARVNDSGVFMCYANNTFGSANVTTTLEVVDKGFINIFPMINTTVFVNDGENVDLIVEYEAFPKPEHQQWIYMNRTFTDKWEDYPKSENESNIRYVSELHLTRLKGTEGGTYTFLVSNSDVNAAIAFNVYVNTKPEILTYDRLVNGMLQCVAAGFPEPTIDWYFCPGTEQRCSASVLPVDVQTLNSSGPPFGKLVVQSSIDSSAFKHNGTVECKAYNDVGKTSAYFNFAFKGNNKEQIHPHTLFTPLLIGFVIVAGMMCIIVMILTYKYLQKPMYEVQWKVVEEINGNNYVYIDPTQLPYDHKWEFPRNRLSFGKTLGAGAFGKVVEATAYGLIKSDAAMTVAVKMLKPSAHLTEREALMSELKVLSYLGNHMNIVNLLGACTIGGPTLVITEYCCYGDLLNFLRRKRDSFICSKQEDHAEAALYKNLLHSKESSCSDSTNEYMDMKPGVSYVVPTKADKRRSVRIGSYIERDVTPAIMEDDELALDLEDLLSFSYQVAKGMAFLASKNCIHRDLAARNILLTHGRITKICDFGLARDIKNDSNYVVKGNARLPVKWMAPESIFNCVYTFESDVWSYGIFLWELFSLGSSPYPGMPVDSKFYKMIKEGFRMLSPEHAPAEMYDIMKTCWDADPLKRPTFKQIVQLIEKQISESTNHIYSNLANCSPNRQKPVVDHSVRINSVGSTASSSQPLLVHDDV
# [6] = target: Tyrosine-protein kinase Lyn (Homo sapiens, UniProt P07948); format: functional;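 note: lyn as one member of a kinase panel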
# [7] = target: Tyrosine-protein kinase Blk (Homo sapiens, UniProt P51451); format: functional;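 note: obtained as one member of a kinome-wide kinase assay panel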
# Sequence of Tyrosine-protein kinase Blk (P51451 whole entry): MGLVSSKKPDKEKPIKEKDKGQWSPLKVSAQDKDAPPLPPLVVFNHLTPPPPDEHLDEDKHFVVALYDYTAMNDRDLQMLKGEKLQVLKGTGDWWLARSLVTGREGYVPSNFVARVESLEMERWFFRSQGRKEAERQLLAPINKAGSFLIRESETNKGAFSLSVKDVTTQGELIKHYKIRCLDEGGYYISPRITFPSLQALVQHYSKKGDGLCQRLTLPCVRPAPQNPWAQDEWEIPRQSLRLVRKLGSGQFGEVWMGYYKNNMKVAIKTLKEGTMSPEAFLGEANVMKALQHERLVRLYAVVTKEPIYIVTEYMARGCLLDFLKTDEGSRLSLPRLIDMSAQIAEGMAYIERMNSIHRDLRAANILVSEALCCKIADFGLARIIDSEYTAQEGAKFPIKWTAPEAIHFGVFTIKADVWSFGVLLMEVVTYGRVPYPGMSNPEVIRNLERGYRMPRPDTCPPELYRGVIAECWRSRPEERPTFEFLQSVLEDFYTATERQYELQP
# [8] = target: Proto-oncogene tyrosine-protein kinase Src (Homo sapiens, UniProt P12931); format: functional;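 note: SRC entry within a kinome-wide kinase profiling panel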
# Sequence of Proto-oncogene tyrosine-protein kinase Src (P12931 2-536 limits assumed): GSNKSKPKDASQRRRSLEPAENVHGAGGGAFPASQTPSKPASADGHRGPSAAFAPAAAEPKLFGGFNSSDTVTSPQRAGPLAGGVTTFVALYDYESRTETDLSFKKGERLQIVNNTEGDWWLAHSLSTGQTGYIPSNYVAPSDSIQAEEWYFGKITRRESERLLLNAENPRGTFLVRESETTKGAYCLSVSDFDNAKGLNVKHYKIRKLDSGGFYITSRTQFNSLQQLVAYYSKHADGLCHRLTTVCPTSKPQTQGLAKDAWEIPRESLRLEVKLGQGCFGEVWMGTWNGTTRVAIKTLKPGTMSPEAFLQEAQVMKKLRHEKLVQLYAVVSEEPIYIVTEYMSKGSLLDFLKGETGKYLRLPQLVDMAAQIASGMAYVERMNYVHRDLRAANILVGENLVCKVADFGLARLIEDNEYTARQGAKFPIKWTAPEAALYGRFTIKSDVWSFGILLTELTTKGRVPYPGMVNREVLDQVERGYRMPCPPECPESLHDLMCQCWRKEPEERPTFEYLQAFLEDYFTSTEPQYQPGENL
# [9] = target: T2, Receptor-type tyrosine-protein kinase FLT3 (Homo sapiens, UniProt P36888); format: functional;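 note: FLT3 was tested as one member of a kinome-wide kinase panel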
# T2 sequence (P36888 whole entry): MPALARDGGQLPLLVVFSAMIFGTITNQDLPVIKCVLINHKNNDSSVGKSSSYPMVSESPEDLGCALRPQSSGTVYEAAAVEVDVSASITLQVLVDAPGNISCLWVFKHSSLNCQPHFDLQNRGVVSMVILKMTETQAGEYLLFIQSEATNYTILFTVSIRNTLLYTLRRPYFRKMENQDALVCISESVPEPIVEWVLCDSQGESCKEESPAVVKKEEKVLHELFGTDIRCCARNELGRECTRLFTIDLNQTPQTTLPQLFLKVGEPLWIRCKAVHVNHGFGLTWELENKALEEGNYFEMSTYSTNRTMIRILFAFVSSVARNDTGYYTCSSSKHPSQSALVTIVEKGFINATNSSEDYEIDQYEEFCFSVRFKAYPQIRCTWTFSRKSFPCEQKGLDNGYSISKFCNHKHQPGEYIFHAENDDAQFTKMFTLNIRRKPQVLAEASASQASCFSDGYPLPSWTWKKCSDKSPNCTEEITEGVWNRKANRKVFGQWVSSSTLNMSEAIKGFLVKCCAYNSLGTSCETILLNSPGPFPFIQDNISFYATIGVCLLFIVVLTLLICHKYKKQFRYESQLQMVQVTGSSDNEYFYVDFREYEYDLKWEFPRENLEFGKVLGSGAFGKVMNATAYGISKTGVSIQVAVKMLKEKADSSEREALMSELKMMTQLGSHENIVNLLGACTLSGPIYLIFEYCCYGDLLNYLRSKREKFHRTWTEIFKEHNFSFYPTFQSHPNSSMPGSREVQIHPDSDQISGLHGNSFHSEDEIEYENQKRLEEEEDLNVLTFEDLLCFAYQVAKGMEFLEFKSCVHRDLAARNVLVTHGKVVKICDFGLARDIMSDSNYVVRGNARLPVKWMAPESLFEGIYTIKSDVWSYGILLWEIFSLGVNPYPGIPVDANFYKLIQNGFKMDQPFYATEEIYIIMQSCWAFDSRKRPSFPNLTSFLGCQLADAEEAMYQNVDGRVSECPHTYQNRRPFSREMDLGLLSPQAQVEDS
# [10] = target: Tyrosine-protein kinase ABL1 (Homo sapiens, UniProt P00519); format: functional
# [11] = target: Vascular endothelial growth factor receptor 2 (Homo sapiens, UniProt P35968); format: functional
# [12] = target: Vascular endothelial growth factor receptor 3 (Homo sapiens, UniProt P35916); format: functional;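 note: value from a kinome-wide profiling panel, with FLT4 as the panel member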
# [13] = target: Tyrosine-protein kinase Fyn (Homo sapiens, UniProt P06241); format: functional
# [14] = target: Vascular endothelial growth factor receptor 1 (Homo sapiens, UniProt P17948); format: functional;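 note: measured within a kinome-wide profiling panel, FLT1 as the panel member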
# [15] = target: Macrophage colony-stimulating factor 1 receptor (Homo sapiens, UniProt P07333); format: functional;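 note: value comes from the Navigating the Kinome screening panel, CSF1R member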
# INS1 [16] = assay: protection of INS-1E cells from cytokine death, dose response, ATP luminescence, dry powder (AID 488844); format: functional, cell-based; conditions: Rattus norvegicus
# [17] = inhibitors of cytokine-induced nitrite release, dose response, cell-based, Griess absorbance, INS-1E, dry powder, set 3 (AID 488870); format: functional; conditions: Rattus norvegicus
# INS1 [18] = assay: inhibitors of cytokine-induced nitrite release, dose response, cell-based, Griess absorbance, INS-1E, dry powder, set 2 (AID 488868); format: functional; conditions: Rattus norvegicus
# [19] = target: T3, Mannose-6-phosphate isomerase (Homo sapiens, UniProt P34949); assay: human PMI inhibitors, high substrate, primary screen, biochemical, fluorescence intensity, high mannose 6-phosphate (AID 1220)
# T3 sequence (P34949 whole entry): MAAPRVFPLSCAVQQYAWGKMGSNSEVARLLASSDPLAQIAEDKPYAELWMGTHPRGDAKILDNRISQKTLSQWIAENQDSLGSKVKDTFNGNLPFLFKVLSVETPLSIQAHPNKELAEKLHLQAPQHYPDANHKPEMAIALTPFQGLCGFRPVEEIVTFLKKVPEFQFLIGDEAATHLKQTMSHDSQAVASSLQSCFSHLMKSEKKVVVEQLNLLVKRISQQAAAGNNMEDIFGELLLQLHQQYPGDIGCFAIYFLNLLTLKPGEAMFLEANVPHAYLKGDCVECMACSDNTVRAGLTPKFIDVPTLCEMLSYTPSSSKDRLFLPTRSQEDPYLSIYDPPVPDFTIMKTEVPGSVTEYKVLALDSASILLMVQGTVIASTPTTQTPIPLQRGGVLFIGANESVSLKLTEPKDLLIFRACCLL
# Insulin-degrading enzyme [20] = target: T4, Insulin-degrading enzyme (Homo sapiens, UniProt P14735); assay: activators of recombinant IDE enzyme, dose response, counter-screen for IDE activator project, biochemical, fluorescence polarization (AID 588681)
# T4 sequence (P14735 whole entry): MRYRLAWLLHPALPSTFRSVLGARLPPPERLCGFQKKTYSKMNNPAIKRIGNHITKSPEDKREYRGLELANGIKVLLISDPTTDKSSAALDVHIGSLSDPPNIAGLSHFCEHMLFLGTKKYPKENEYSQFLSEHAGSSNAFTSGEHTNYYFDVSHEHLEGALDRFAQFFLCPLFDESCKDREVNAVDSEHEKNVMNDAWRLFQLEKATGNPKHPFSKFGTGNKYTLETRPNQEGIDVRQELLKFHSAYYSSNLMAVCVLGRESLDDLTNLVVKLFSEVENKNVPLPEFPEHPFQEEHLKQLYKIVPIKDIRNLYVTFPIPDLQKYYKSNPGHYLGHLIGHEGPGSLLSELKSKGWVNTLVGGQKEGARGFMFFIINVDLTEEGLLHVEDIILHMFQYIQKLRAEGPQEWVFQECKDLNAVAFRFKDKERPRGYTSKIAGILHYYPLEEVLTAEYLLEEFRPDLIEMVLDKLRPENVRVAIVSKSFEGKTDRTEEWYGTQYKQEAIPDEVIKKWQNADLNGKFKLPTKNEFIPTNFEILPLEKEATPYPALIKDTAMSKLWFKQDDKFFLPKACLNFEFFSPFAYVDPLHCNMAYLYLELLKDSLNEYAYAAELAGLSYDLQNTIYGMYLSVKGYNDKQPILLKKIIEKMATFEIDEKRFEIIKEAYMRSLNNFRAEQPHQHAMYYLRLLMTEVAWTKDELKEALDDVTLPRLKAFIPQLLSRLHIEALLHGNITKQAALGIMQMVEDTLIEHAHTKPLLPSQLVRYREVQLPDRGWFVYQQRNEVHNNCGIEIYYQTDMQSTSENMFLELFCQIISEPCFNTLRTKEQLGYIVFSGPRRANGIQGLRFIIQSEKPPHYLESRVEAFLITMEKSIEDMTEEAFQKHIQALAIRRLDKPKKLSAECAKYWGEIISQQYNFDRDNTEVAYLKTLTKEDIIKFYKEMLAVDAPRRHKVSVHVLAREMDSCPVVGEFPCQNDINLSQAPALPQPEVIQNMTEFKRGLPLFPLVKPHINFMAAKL
# Insulin-degrading enzyme [21] = target: T4, Insulin-degrading enzyme; assay: activators of endogenous IDE in HEK cells, dose response, cell-based, fluorescence polarization (AID 588439); format: functional
# HEK293 [22] = assay: HEK cell cytotoxicity by LDH release, dose response, cytotoxicity control for IDE activator project, fluorescence, HEK cells (AID 588440); format: functional, cell-based; conditions: Homo sapiens;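 note: cytotoxicity by LDH release measuring loss of membrane integrity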
# HEK293 [23] = assay: optical interference in Abeta FP readout, dose response, artefact control for IDE activator project, biochemical, fluorescence polarization (AID 588442); format: functional, cell-based; conditions: Homo sapiens
# [24] = target: Benomyl/methotrexate resistance protein (Candida albicans, UniProt P28873); assay: CaMdr1 efflux pump inhibitor potency, dose response, singleplex, Cherry Pick1 hits (AID 588608); format: functional
# Sequence of Benomyl/methotrexate resistance protein (P28873 whole entry): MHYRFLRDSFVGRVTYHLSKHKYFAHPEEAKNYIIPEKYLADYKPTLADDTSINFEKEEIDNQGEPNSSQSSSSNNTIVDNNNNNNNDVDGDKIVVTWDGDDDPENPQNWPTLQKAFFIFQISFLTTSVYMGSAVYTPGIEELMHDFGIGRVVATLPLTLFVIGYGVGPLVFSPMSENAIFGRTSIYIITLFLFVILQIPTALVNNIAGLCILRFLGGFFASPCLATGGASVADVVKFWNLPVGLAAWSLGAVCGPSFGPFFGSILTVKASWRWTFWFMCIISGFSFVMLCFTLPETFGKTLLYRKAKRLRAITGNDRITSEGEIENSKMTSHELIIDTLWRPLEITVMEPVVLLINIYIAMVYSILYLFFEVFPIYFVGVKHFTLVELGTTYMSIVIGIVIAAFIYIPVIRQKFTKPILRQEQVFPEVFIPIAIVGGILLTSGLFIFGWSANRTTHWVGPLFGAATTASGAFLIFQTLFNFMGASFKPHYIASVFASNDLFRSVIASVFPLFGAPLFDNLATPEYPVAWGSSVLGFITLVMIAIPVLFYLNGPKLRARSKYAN
# [25] = target: Multidrug resistance protein CDR1 (Candida albicans, UniProt P43071); assay: CaCDR1 efflux pump inhibitors in yeast, dose response, S. cerevisiae AD1-8u, singleplex, Cherry Pick1 hits (AID 588606); format: functional
# Sequence of Multidrug resistance protein CDR1 (P43071 whole entry, looked up): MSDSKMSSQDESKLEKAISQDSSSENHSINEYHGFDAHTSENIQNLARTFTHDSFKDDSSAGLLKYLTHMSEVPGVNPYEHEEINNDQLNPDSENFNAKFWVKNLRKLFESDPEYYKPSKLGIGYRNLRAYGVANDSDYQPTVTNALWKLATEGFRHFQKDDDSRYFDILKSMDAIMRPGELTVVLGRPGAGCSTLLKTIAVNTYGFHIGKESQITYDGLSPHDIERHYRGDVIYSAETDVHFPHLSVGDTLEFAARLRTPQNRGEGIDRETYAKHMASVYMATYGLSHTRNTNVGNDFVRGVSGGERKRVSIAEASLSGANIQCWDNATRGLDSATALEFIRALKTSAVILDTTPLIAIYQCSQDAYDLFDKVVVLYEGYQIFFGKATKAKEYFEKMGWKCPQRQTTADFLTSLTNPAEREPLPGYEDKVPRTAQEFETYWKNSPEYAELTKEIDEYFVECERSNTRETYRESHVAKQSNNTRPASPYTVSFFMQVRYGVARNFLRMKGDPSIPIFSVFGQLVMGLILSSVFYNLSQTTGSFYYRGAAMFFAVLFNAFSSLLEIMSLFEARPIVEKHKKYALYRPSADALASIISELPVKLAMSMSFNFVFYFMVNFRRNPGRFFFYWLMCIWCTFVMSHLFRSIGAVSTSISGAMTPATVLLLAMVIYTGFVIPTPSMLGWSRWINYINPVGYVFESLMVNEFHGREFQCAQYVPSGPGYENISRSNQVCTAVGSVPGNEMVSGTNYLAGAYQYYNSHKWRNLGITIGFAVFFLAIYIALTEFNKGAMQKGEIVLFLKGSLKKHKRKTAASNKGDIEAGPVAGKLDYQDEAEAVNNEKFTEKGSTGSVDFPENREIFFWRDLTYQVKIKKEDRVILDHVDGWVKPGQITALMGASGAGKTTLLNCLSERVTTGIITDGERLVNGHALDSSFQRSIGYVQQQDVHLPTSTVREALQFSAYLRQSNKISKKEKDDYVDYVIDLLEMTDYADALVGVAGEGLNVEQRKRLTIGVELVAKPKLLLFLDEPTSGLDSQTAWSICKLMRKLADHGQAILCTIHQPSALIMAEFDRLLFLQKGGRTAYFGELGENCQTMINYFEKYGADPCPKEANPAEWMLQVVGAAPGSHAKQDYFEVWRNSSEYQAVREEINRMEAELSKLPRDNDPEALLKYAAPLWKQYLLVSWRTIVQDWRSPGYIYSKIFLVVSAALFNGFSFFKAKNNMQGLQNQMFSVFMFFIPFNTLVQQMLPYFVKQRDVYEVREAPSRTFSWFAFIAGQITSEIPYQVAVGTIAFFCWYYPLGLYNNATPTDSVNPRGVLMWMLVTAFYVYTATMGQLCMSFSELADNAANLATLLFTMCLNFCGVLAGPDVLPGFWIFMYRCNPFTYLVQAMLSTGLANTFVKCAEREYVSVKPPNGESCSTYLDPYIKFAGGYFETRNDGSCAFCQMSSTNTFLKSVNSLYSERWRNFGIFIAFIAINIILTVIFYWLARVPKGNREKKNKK
# Vero = assay: West Nile virus antiviral activity, cell-based, CPE readout (AID 1621); format: functional; conditions: Chlorocebus sabaeus
# [26] = target: T5, Protein disulfide-isomerase (Homo sapiens, UniProt P07237); assay: PDI inhibitors, insulin aggregation turbidity, dose response, biochemical, absorbance, cherry-picked samples (AID 602350); format: functional
# T5 sequence (P07237 whole entry): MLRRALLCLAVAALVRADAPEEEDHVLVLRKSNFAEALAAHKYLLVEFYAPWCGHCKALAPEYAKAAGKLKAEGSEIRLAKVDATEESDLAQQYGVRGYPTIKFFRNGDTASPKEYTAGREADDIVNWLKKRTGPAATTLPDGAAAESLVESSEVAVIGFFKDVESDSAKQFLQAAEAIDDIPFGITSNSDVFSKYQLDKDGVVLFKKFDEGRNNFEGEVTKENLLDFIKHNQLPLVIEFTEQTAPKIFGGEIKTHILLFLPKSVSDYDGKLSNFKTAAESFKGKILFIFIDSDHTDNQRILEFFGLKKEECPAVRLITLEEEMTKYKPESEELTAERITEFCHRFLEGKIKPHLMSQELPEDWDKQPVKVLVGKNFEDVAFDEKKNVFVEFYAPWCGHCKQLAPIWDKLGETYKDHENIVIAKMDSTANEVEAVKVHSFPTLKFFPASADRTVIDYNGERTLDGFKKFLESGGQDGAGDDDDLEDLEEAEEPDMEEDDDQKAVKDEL
# [27] = HeLa cell cytotoxicity, dose response, cytotoxicity control, ATP luminescence, dry powder (AID 652117); format: functional, cell-based
# [28] = target: T5, Protein disulfide-isomerase; assay: PDI inhibitors, insulin turbidity readout, confirmation, biochemical, dry powder samples, set 2 (AID 652146)
# [29] = inhibitors of intracellular T. cruzi replication, confirmation, NIH3T3 host cells, beta-gal luminescence (AID 2044); format: functional, cell-based;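 note: intracellular parasites grown in NIH/3T3 mouse fibroblasts as host cells; luminescent beta-galactosidase reporter signal from transgenic T. cruzi replicating inside host cells; inhibitors lower the luminescence signal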
# [30] = cytotoxicity toward NIH3T3 fibroblasts, dose response, counter-screen, cell-based, ATP luminescence, mouse fibroblasts (AID 2010); format: functional;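 note: cells exposed to compound for about 90 hours before reading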
# [31] = cytotoxicity in HEK-293T cells, dose response, cytotoxicity control for BCR NF-kB inhibitor project, luminescence, B-cell screen hits (AID 489021); format: functional, cell-based;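 note: HEK-293T cells carrying an NF-kB luciferase reporter; cells exposed to compound for about 14 hours before viability readout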
# INS1 [32] = assay: beta cell apoptosis inhibitors, cytokine rescue, dose response, luminescence, retest (AID 449756); format: functional, cell-based; conditions: Rattus norvegicus;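 note: cell death triggered by IL-1 beta plus TNF-alpha plus IFN-gamma mixture; protective hits raise ATP signal compared with cytokine alone wells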
# [33] = target: T6, High affinity choline transporter 1 (Homo sapiens, UniProt Q9GZV3); assay: CHT activators, dose response, cell-based, 10-point CRC, membrane potential dye (AID 602376); format: functional
# T6 sequence (Q9GZV3 whole entry): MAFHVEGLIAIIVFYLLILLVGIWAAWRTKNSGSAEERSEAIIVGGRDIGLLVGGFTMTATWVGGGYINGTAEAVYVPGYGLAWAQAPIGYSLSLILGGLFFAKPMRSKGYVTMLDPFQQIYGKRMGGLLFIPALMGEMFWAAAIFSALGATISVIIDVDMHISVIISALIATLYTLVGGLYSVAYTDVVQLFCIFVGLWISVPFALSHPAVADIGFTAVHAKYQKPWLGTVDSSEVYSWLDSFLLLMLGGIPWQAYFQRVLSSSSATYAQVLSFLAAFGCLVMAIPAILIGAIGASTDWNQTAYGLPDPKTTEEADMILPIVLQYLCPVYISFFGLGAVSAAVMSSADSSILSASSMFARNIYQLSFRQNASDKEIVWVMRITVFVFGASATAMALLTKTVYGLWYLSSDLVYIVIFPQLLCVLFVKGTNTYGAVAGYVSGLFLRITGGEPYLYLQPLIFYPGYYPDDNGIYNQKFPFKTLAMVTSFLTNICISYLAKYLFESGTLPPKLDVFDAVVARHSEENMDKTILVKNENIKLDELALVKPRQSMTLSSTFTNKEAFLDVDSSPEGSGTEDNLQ
smiles,measurement,setting,value
CC(=O)n1cc([C@H]2C=C(C(=O)Nc3ccccc3)O[C@@H](OCc3ccc(CO)cc3)C2)c2ccccc21,IC50,[1],> 20 µM (inactive)
same,IC50,[2],65.6 µM (active)
same,IC50,[3],> 100 µM (inactive)
same,IC50,Prothrombin,80.6 µM (active)
COc1ccc(-c2ccc(NC(=O)Nc3ccc(OC(F)(F)F)cc3)cc2)c2c(N)noc12,Ki,[4],0.0316 µM (active)
same,Ki,[5],0.00158 µM (active)
same,Ki,[6],0.0631 µM (active)
same,Ki,[7],0.0158 µM (active)
same,Ki,[8],0.126 µM (active)
same,Ki,[9],0.00126 µM (active)
same,Ki,[10],0.2 µM (active)
same,Ki,[11],0.001 µM (active)
same,Ki,[12],0.0126 µM (active)
same,Ki,[13],0.0794 µM (active)
same,Ki,[14],0.000631 µM (active)
same,Ki,[15],0.00501 µM (active)
C[C@@H]1CN([C@H](C)CO)C(=O)c2cccc(NC(=O)Nc3cccc4ccccc34)c2O[C@H]1CN(C)S(=O)(=O)c1ccc(Cl)cc1,AC50,INS1 [16],187 µM (active)
same,AC50,[17],112 µM (active)
same,AC50,INS1 [18],48.5 µM (active)
O=c1oc2cc(O)ccc2cc1-c1nc2c(s1)CCc1ccccc1-2,IC50,[19],> 50 µM (not active)
same,EC50,Insulin-degrading enzyme [20],> 54.7 µM (inactive)
same,EC50,Insulin-degrading enzyme [21],> 54.7 µM (inactive)
same,IC50,HEK293 [22],> 89.2 µM (inactive)
same,EC50,HEK293 [23],4.6 µM (active)
CC(C)C(=O)N1CCC2(CC1)Oc1ccc(F)cc1C(=O)C21CC(c2ccc(Cl)cc2)=NO1 (stereo not given),EC50,[24],31.7 µM (active)
same,EC50,[25],12.6 µM (active)
CCOC(=O)c1c(CN2CCN(CCO)CC2)n(-c2ccccc2)c2cc(Br)c(O)cc12,IC50,Vero,20.2 µM (active)
same,AC50,[26],0.61 µM (active)
same,AC50,[27],> 52 µM (inactive)
same,AC50,[28],2 µM (active)
CCOc1ccc(-c2cn3c([n+]2-c2ccccc2)CCCCC3)cc1,EC50,[29],0.463 µM (active)
same,EC50,[30],15.1 µM (active)
same,IC50,[31],> 80 µM (inactive)
same,AC50,INS1 [32],0.998 µM (active)
same,EC50,[33],6.83 µM (active)
